In patent US20230074545A1, “TREATMENT OF CANCER WITH CDK12/13 INHIBITORS” (Kinnate Biopharma Inc., priority 2019, published 2023):

Experiments:
Test in all cases: Radiometric kinase panel
Type in all cases: biochemical
[1] = target: T1, ROCK1 (Homo sapiens, UniProt Q13464)
T1 construct: either as full-length or enzymatically active fragments; purchased ProQinase GmbH (Reaction Biology)
Description: (§1) The compounds 1-5 (see Table 1) were assayed for kinase activity at ProQinase (ProQinase GmbH, Reaction Biology; Freiburg, Germany) using their commercially available radiometric kinase assay services. Briefly, the compounds were provided as solids and were dissolved to 1×10^−03 M/100% DMSO stock solutions on the day of assay. All protein kinases were provided by ProQinase and were expressed in Sf9 insect cells or in E. coli as recombinant GST-fusion proteins or His-tagged proteins, either as full-length or enzymatically active fragments. All kinases were produced from human cDNAs and purified by either GSH-affinity chromatography or immobilized metal. The purity of the protein kinases was examined by SDS-PAGE/Coomassie staining, the identity was checked by mass spectroscopy. A radiometric protein kinase assay (^33PanQinase® Activity Assay) was used for measuring the kinase activity of the protein kinase. All kinase assays were performed in 96-well FlashPlates™ from PerkinElmer (Boston, Mass., USA) in a 50 microliter reaction volume. The reaction cocktail was pipetted in four steps in the following order: 1) 25 microliter of assay buffer (standard buffer/[gamma-^33P]-ATP); 2) 10 microliter of ATP solution (in H2O); 3) 5 microliter of test compound (in 10% DMSO); 4) 10 microliter of enzyme/substrate mixture.
(§2) Compound 4 was analyzed for selectivity against a panel of other kinases at ProQinase using their commercially available radiometric kinase assay services and the methods described in Example 1.

[2] = target: T2, CHK1 (Homo sapiens, UniProt O14757)
T2 construct: either as full-length or enzymatically active fragments; purchased ProQinase GmbH (Reaction Biology)
Description: as §1, §2

[3] = target: T3, PBK (Homo sapiens, UniProt Q96KB5)
T3 construct: purchased ProQinase GmbH (Reaction Biology); host or cells: Sf9 insect cells or E. coli (not specified per kinase)
Description: as §1, §2

[4] = target: T4, DYRK2 (Homo sapiens, UniProt Q92630)
T4 construct: purchased ProQinase GmbH (Reaction Biology); host or cells: Sf9 insect cells or E. coli (not specified per kinase)
Description: as §1, §2

[5] = target: T5, EIF2AK2 (Homo sapiens, UniProt P19525)
T5 construct: either as full-length or enzymatically active fragments; purchased ProQinase GmbH (Reaction Biology); host or cells: Sf9 insect cells or E. coli
Description: as §1, §2

[6] = target: T6, FES (Homo sapiens, UniProt P07332)
T6 construct: purchased ProQinase GmbH (Reaction Biology)
Description: as §1, §2

[7] = target: T7, PAK1 (Homo sapiens, UniProt Q13153)
T7 construct: either as full-length or enzymatically active fragments; purchased ProQinase GmbH (Reaction Biology)
Description: as §1, §2

[8] = target: T8, BMPR1B (Homo sapiens, UniProt O00238)
T8 construct: either as full-length or enzymatically active fragments; purchased ProQinase GmbH (Reaction Biology)
Description: as §1, §2

[9] = target: T9, p38beta (Homo sapiens, UniProt Q15759)
T9 construct: either as full-length or enzymatically active fragments; purchased ProQinase GmbH (Reaction Biology); host or cells: Sf9 insect cells or E. coli (not specified per kinase)
Description: as §1, §2

[10] = target: T10, SRPK2 (Homo sapiens, UniProt P78362)
T10 construct: purchased ProQinase GmbH (Reaction Biology)
Description: as §1, §2

[11] = target: T11, CAMK4 (Homo sapiens, UniProt Q16566)
T11 construct: either as full-length or enzymatically active fragments; purchased ProQinase GmbH (Reaction Biology)
Description: as §1, §2

[12] = target: T12, CK1gamma1 (Homo sapiens, UniProt Q9HCP0)
T12 construct: either as full-length or enzymatically active fragments; purchased ProQinase GmbH (Reaction Biology)
Description: as §1, §2

[13] = target: T13, MARK3 (Homo sapiens, UniProt P27448)
T13 construct: either as full-length or enzymatically active fragments; purchased ProQinase GmbH (Reaction Biology); host or cells: Sf9 insect cells or E. coli
Description: as §1, §2

[14] = target: T14, SIK3 (Homo sapiens, UniProt Q9Y2K2)
T14 construct: either as full-length or enzymatically active fragments; purchased ProQinase GmbH (Reaction Biology)
Description: as §1, §2

[15] = target: T15, PKCbeta2 (Homo sapiens, UniProt P05771)
T15 construct: either as full-length or enzymatically active fragments; purchased ProQinase GmbH (Reaction Biology)
Description: as §1, §2

[16] = target: T16, RPS6KA1 (Homo sapiens, UniProt Q15418)
T16 construct: purchased ProQinase GmbH (Reaction Biology)
Description: as §1, §2

[17] = target: T17, MST4 (Homo sapiens, UniProt Q9P289)
T17 construct: either as full-length or enzymatically active fragments; purchased ProQinase GmbH (Reaction Biology)
Description: as §1, §2

[18] = target: T18, PAK2 (Homo sapiens, UniProt Q13177)
T18 construct: either as full-length or enzymatically active fragments; purchased ProQinase GmbH (Reaction Biology)
Description: as §1, §2

[19] = target: T19, FGFR3 (Homo sapiens, UniProt P22607)
T19 construct: either as full-length or enzymatically active fragments; purchased ProQinase GmbH (Reaction Biology); host or cells: Sf9 insect cells or E. coli
Description: as §1, §2

[20] = target: T20, TGFBR2 (Homo sapiens, UniProt P37173)
T20 construct: either as full-length or enzymatically active fragments; purchased ProQinase GmbH (Reaction Biology)
Description: as §1, §2

[21] = target: T21, EPHA6 (Homo sapiens, UniProt Q9UF33)
T21 construct: either as full-length or enzymatically active fragments; purchased ProQinase GmbH (Reaction Biology)
Description: as §1, §2

[22] = target: T22, ALK (Homo sapiens, UniProt Q9UM73)
T22 construct: either as full-length or enzymatically active fragments; purchased ProQinase GmbH (Reaction Biology)
Description: as §1, §2

[23] = target: T23, TTK (Homo sapiens, UniProt P33981)
T23 construct: either as full-length or enzymatically active fragments; purchased ProQinase GmbH (Reaction Biology); host or cells: Sf9 insect cells or E. coli
Description: as §1, §2

[24] = target: T24, EIF2AK3 (Homo sapiens, UniProt Q9NZJ5)
T24 construct: either as full-length or enzymatically active fragments; purchased ProQinase GmbH (Reaction Biology); host or cells: Sf9 insect cells or E. coli
Description: as §1, §2

[25] = target: T25, CDK13/CycK (Homo sapiens, UniProt Q14004)
T25 construct: either as full-length or enzymatically active fragments; purchased ProQinase GmbH (Reaction Biology)
Description: as §1, §2

[26] = target: T26, JNK3 (Homo sapiens, UniProt P53779)
T26 construct: either as full-length or enzymatically active fragments; purchased ProQinase GmbH (Reaction Biology)
Description: as §1, §2

[27] = target: T27, ITK (Homo sapiens, UniProt Q08881)
T27 construct: purchased ProQinase GmbH (Reaction Biology); host or cells: Sf9 insect cells or E. coli (not specified per kinase)
Description: as §1, §2

[28] = target: T28, NLK (Homo sapiens, UniProt Q9UBE8)
T28 construct: either as full-length or enzymatically active fragments; purchased ProQinase GmbH (Reaction Biology)
Description: as §1, §2

[29] = target: T29, MAP3K7/MAP3K7IP1 (Homo sapiens, UniProt O43318)
T29 construct: either as full-length or enzymatically active fragments; purchased ProQinase GmbH (Reaction Biology)
Description: as §1, §2

[30] = target: T30, EPHA5 (Homo sapiens, UniProt P54756)
T30 construct: either as full-length or enzymatically active fragments; purchased ProQinase GmbH (Reaction Biology)
Description: as §1, §2

T21 sequence (Q9UF33 23-1036): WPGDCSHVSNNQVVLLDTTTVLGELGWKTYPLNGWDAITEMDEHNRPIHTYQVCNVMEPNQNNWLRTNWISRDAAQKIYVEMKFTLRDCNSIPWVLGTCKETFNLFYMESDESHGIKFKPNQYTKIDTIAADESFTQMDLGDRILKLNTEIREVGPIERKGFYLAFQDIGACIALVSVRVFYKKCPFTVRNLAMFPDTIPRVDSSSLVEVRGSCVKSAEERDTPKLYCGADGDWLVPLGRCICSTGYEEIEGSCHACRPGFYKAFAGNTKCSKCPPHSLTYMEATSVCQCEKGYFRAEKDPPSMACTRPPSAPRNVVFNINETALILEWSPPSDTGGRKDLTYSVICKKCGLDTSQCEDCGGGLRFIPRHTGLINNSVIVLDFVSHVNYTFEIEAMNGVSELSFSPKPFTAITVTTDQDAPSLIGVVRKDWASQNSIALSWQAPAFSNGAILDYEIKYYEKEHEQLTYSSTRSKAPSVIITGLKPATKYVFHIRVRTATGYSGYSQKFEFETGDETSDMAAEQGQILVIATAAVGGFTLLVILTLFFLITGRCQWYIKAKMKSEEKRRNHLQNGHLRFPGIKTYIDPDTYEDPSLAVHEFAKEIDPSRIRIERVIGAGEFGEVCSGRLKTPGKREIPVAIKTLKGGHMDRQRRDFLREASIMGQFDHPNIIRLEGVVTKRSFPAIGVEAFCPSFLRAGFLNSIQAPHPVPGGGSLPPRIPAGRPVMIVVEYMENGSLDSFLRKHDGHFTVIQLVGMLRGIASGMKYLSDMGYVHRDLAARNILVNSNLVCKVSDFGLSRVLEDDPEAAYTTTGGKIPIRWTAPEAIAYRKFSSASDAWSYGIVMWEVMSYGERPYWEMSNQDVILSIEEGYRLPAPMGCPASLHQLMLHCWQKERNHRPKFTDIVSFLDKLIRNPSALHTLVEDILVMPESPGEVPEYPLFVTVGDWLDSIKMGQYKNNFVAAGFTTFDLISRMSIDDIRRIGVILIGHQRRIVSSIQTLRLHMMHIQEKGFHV
T14 sequence (Q9Y2K2 whole entry, the tested form may be a part): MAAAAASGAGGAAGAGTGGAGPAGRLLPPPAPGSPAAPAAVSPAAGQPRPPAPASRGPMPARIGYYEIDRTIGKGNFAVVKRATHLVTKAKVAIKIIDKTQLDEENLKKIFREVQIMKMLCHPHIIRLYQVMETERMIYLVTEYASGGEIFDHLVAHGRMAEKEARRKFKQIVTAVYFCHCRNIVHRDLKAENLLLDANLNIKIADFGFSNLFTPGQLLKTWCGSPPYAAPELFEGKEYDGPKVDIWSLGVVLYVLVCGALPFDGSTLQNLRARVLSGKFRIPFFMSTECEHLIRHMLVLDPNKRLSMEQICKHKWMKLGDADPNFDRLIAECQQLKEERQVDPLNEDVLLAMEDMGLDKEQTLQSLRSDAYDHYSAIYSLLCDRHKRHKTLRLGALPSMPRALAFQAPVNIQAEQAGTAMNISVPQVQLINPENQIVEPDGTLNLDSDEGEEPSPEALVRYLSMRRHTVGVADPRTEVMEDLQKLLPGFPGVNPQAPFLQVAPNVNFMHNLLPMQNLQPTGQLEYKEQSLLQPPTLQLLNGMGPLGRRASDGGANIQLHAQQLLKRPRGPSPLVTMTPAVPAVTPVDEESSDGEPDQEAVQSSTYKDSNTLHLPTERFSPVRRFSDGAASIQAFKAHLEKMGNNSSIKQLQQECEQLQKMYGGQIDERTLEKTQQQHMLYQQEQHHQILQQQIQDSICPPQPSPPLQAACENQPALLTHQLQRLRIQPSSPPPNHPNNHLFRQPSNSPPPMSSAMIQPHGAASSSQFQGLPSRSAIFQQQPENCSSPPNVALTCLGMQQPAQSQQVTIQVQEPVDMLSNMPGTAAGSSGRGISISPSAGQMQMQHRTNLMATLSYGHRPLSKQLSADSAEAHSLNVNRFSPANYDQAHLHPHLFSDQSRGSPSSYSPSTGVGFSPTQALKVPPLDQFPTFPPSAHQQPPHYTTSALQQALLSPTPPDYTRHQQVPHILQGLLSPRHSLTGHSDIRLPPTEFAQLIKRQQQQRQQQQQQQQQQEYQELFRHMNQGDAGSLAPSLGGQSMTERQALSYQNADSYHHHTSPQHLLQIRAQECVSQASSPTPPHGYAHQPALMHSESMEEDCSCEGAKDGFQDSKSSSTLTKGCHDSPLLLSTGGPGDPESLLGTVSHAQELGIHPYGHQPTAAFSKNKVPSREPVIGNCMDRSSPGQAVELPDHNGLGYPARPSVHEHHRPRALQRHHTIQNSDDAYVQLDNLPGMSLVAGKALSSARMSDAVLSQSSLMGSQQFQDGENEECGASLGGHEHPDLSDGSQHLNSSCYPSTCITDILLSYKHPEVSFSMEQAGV
T13 sequence (P27448 whole entry, the tested form may be a part): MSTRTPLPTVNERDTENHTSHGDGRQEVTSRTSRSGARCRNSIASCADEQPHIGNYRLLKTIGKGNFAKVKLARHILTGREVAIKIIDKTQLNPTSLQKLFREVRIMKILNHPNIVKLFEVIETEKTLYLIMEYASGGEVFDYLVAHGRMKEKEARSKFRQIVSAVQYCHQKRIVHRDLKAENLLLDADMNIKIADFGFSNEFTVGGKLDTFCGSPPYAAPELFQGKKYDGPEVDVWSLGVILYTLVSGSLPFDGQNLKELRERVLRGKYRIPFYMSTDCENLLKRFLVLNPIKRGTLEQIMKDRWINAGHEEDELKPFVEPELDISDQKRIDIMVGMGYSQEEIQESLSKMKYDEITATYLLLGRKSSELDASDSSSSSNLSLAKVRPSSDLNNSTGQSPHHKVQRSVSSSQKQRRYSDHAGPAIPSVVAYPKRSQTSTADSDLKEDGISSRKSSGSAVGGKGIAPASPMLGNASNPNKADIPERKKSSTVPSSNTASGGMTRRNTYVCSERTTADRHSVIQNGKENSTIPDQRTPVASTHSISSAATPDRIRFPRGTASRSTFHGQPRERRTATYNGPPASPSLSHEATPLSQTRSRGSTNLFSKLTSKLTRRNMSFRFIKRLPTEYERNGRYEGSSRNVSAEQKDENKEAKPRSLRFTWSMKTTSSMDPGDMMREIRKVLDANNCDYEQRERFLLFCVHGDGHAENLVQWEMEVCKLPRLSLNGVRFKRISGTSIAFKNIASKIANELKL
T20 sequence (P37173 23-567): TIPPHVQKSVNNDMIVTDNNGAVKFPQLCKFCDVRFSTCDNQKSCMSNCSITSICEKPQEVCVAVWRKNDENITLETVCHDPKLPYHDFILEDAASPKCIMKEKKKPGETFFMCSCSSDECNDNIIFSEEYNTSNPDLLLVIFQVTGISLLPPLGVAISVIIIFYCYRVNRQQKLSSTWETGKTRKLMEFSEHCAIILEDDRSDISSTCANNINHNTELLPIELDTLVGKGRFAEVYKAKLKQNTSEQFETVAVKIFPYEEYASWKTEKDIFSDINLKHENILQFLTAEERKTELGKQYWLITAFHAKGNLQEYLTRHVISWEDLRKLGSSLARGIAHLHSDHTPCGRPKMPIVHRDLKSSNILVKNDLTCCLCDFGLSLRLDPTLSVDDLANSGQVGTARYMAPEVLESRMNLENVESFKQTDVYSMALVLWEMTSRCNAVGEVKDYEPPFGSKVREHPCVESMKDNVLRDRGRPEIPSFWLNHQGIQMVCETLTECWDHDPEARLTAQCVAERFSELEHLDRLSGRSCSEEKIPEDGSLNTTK
T8 sequence (O00238 14-502): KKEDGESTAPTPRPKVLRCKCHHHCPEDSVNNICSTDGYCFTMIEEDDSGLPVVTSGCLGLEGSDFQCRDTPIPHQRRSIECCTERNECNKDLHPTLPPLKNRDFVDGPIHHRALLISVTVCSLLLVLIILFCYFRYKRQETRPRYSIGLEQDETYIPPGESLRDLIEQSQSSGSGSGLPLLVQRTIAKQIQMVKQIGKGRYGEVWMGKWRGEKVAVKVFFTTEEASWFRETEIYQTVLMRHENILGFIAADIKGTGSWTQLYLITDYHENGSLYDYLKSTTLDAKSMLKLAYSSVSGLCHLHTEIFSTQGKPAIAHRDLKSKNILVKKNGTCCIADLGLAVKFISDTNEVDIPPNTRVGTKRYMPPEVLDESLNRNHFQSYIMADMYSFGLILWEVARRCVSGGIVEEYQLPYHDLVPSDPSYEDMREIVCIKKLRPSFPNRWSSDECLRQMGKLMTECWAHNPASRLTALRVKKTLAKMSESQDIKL
T10 sequence (P78362 whole entry): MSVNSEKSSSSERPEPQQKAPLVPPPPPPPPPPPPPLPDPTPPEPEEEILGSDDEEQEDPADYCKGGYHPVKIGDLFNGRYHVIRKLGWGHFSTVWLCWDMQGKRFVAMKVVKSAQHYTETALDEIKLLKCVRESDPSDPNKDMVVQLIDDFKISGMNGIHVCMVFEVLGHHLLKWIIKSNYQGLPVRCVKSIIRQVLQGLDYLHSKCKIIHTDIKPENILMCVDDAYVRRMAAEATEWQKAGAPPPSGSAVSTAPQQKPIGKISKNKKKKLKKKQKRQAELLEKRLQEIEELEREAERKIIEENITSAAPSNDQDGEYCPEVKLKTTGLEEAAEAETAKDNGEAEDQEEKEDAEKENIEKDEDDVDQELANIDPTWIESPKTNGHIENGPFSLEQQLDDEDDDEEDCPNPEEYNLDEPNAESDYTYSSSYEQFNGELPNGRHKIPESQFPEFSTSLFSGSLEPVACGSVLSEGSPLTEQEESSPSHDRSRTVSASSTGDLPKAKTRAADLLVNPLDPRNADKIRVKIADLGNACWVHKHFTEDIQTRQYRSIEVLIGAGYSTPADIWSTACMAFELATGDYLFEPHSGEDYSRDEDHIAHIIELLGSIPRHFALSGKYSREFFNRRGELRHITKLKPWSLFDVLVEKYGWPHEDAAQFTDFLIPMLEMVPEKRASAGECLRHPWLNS

C=CC(=O)Nc1ccc(C(=O)N2CC[C@@H](Nc3ncc(C#N)cn3)C2)cc1 [Compound 4, (R)-N-(4-(3-((5-cyanopyrimidin-2-yl)amino)pyrrolidine-1-carbonyl)phenyl)acrylamide]
inhibition at 1 µM [1]: 15% | inhibition at 1 µM [2]: 3% | inhibition at 1 µM [3]: 0% | inhibition at 1 µM [4]: 1% | inhibition at 1 µM [5]: 15% | inhibition at 1 µM [6]: -2% | inhibition at 1 µM [7]: -6% | inhibition at 1 µM [8]: 6% | inhibition at 1 µM [9]: 8% | inhibition at 1 µM [10]: 0% | inhibition at 1 µM [11]: 8% | inhibition at 1 µM [12]: -11% | inhibition at 1 µM [13]: -17% | inhibition at 1 µM [14]: 8% | inhibition at 1 µM [15]: 7% | inhibition at 1 µM [16]: -1% | inhibition at 1 µM [17]: 6% | inhibition at 1 µM [18]: 16% | inhibition at 1 µM [19]: -16% | inhibition at 1 µM [20]: 22% | inhibition at 1 µM [21]: 5% | inhibition at 1 µM [22]: 8% | inhibition at 1 µM [23]: 12% | inhibition at 1 µM [24]: 14% | inhibition at 1 µM [25]: 87% | inhibition at 1 µM [26]: -4% | inhibition at 1 µM [27]: 1% | inhibition at 1 µM [28]: 4% | inhibition at 1 µM [29]: 2% | inhibition at 1 µM [30]: -8%
